Results taken from the NIST ThermoML archive (doi:10.1021/je900311v).

Key:
[1] = 298.15 K; 101.33 kPa; Liquid
[2] = excess molar enthalpy (molar enthalpy of mixing); xn = mol fraction of the nth substance listed; conditions: 298.15 K, 101 kPa, Liquid, Calvet calorimetry

CCCCCCC(C)=O [2-octanone]
Conditions | mass density [kg/m3]
[1] | 814.28

CCCCCCC(C)=O [2-octanone] + CCCCCCCCCCCCCCCC
[2]
Conditions | excess molar enthalpy [kcal/mol]
x1 = 0.0446 | 0.0598
x1 = 0.0854 | 0.107
x1 = 0.1228 | 0.144
x1 = 0.1573 | 0.175
x1 = 0.1926 | 0.202
x1 = 0.2251 | 0.223
x1 = 0.255 | 0.241
x1 = 0.2827 | 0.255
x1 = 0.3084 | 0.266
x1 = 0.3324 | 0.274
x1 = 0.3585 | 0.282
x1 = 0.3826 | 0.288
x1 = 0.405 | 0.292
x1 = 0.4258 | 0.295
x1 = 0.448 | 0.298
x1 = 0.4685 | 0.299
x1 = 0.4876 | 0.299
x1 = 0.4933 | 0.3
x1 = 0.5044 | 0.3
x1 = 0.5161 | 0.299
x1 = 0.5282 | 0.299
x1 = 0.541 | 0.298
x1 = 0.5519 | 0.297
x1 = 0.5633 | 0.295
x1 = 0.5751 | 0.294
x1 = 0.5874 | 0.291
x1 = 0.6003 | 0.289
x1 = 0.6138 | 0.286
x1 = 0.6257 | 0.283
x1 = 0.6508 | 0.275
x1 = 0.6642 | 0.27
x1 = 0.6781 | 0.265
x1 = 0.6926 | 0.259
x1 = 0.7048 | 0.254
x1 = 0.7174 | 0.248
x1 = 0.737 | 0.241
x1 = 0.7443 | 0.234
x1 = 0.7583 | 0.226
x1 = 0.7732 | 0.217
x1 = 0.7861 | 0.209
x1 = 0.7993 | 0.2
x1 = 0.8131 | 0.19
x1 = 0.8273 | 0.18
x1 = 0.84 | 0.17
x1 = 0.8531 | 0.159
x1 = 0.8666 | 0.148
x1 = 0.8805 | 0.135
x1 = 0.8949 | 0.122
x1 = 0.9075 | 0.109
x1 = 0.9204 | 0.0961
x1 = 0.9337 | 0.0819
x1 = 0.9473 | 0.0667
x1 = 0.9614 | 0.0499
x1 = 0.9739 | 0.0346
x1 = 0.9868 | 0.0177

CCCCCCC(C)=O [2-octanone] + CCCCCCCCCCCCCC
[2]
Conditions | excess molar enthalpy [kcal/mol]
x1 = 0.0383 | 0.0506
x1 = 0.0737 | 0.0908
x1 = 0.1066 | 0.123
x1 = 0.1373 | 0.15
x1 = 0.1659 | 0.173
x1 = 0.1927 | 0.191
x1 = 0.2226 | 0.209
x1 = 0.2504 | 0.223
x1 = 0.2763 | 0.235
x1 = 0.3005 | 0.244
x1 = 0.3231 | 0.252
x1 = 0.3443 | 0.258
x1 = 0.3678 | 0.263
x1 = 0.3898 | 0.267
x1 = 0.4102 | 0.27
x1 = 0.4151 | 0.273
x1 = 0.4243 | 0.274
x1 = 0.4339 | 0.275
x1 = 0.444 | 0.275
x1 = 0.4546 | 0.276
x1 = 0.4657 | 0.276
x1 = 0.4756 | 0.276
x1 = 0.486 | 0.276
x1 = 0.4968 | 0.275
x1 = 0.5082 | 0.275
x1 = 0.52 | 0.274
x1 = 0.5304 | 0.272
x1 = 0.5412 | 0.271
x1 = 0.5525 | 0.27
x1 = 0.5643 | 0.268
x1 = 0.5765 | 0.265
x1 = 0.5893 | 0.263
x1 = 0.6004 | 0.26
x1 = 0.612 | 0.257
x1 = 0.624 | 0.254
x1 = 0.6364 | 0.25
x1 = 0.6494 | 0.246
x1 = 0.6629 | 0.241
x1 = 0.6753 | 0.237
x1 = 0.6882 | 0.232
x1 = 0.7016 | 0.226
x1 = 0.7155 | 0.22
x1 = 0.73 | 0.213
x1 = 0.7451 | 0.205
x1 = 0.7709 | 0.191
x1 = 0.7844 | 0.183
x1 = 0.7985 | 0.175
x1 = 0.8131 | 0.165
x1 = 0.8282 | 0.155
x1 = 0.8413 | 0.146
x1 = 0.8549 | 0.136
x1 = 0.8689 | 0.125
x1 = 0.8834 | 0.113
x1 = 0.8983 | 0.101
x1 = 0.9138 | 0.0873
x1 = 0.9271 | 0.0752
x1 = 0.9409 | 0.0622
x1 = 0.955 | 0.0482
x1 = 0.9695 | 0.0332
x1 = 0.9845 | 0.017

CCCCCCCCCCCCCC [tetradecane]
Conditions | mass density [kg/m3]
[1] | 760.2

CCCCCCCCCCCC [dodecane]
Conditions | mass density [kg/m3]
[1] | 745.28

CCCCCC(=O)CC [3-octanone]
Conditions | mass density [kg/m3]
[1] | 817.77

CCCCCC(=O)CC [3-octanone] + CCCCCCCCCCCCCCCC
[2]
Conditions | excess molar enthalpy [kcal/mol]
x1 = 0.0448 | 0.0548
x1 = 0.0857 | 0.0987
x1 = 0.1233 | 0.134
x1 = 0.1578 | 0.163
x1 = 0.1899 | 0.187
x1 = 0.2195 | 0.207
x1 = 0.2522 | 0.227
x1 = 0.2824 | 0.243
x1 = 0.3102 | 0.255
x1 = 0.336 | 0.265
x1 = 0.3599 | 0.273
x1 = 0.3822 | 0.279
x1 = 0.4079 | 0.284
x1 = 0.4316 | 0.288
x1 = 0.4534 | 0.29
x1 = 0.4737 | 0.292
x1 = 0.4956 | 0.292
x1 = 0.5158 | 0.291
x1 = 0.5345 | 0.29
x1 = 0.5517 | 0.288
x1 = 0.5677 | 0.286
x1 = 0.5827 | 0.283
x1 = 0.5995 | 0.279
x1 = 0.615 | 0.276
x1 = 0.6293 | 0.272
x1 = 0.6426 | 0.268
x1 = 0.655 | 0.264
x1 = 0.6775 | 0.253
x1 = 0.69 | 0.248
x1 = 0.7029 | 0.243
x1 = 0.7163 | 0.237
x1 = 0.7302 | 0.231
x1 = 0.7423 | 0.225
x1 = 0.7547 | 0.218
x1 = 0.7676 | 0.211
x1 = 0.7809 | 0.204
x1 = 0.7947 | 0.195
x1 = 0.809 | 0.186
x1 = 0.8216 | 0.177
x1 = 0.8347 | 0.168
x1 = 0.8482 | 0.157
x1 = 0.8621 | 0.146
x1 = 0.8741 | 0.136
x1 = 0.8865 | 0.125
x1 = 0.8993 | 0.113
x1 = 0.9124 | 0.1
x1 = 0.9259 | 0.0866
x1 = 0.9375 | 0.0746
x1 = 0.9494 | 0.0618
x1 = 0.9615 | 0.0478
x1 = 0.974 | 0.033
x1 = 0.9868 | 0.0169
